Assay results taken from patent US20090239881A1 (Boehringer Ingelheim International GmbH, priority 2006, published 2009).

Columns and labels:
[1] = after ingestion; cited from earlier work
[2] = system: Sexual Disorders and/or Dysfunctions; experiment: Studies of female patients suffering from Sexual Disorders; type: in vivo, human
5-HT1A receptor = biological target: T1, 5-HT1A receptor (Homo sapiens, UniProt P08908); details: cited from earlier work
T1 sequence (P08908 1-422): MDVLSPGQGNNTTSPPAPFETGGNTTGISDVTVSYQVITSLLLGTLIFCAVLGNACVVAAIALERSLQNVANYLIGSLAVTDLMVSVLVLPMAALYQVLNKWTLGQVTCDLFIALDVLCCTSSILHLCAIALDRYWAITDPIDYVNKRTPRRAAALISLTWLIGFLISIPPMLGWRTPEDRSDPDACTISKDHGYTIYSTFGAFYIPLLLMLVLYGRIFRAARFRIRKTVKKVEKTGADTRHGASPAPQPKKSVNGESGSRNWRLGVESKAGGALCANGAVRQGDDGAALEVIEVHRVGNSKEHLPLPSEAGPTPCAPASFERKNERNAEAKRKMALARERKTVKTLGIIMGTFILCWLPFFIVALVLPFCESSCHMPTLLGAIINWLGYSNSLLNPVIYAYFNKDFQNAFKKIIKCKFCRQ

[3] = known use of flibanserin; cited from earlier work
5-HT2-receptor = details: cited from earlier work

Compound | physiological half-life [1] | effect on Sexual Disorders and/or Dysfunctions [2] | affinity for the 5-HT1A receptor (5-HT1A receptor) | side effects (sedation) [3] | affinity for the 5-HT2-receptor (5-HT2-receptor)
Cn1c(=O)c2c(ncn2C)n(C)c1=O [caffeine] | three and a half to six | – | – | – | –
O=c1[nH]c2ccccc2n1CCN1CCN(c2cccc(C(F)(F)F)c2)CC1 [flibanserin, 1-[2-(4-(3-trifluoromethyl-phenyl)piperazin-1-yl)ethyl]-2,3-dihydro-1H-benzimidazol-2-one] | – | positive effect | shows affinity | sometimes mild or moderate symptoms such as sedation may occur | shows affinity
